The subject of data set [1] is MCF7 (mammary gland breast cancer). The data set can be described thus: MTT antiproliferative assay, MCF7. To be noted: Homo sapiens, MCF7, read-out: IC50 (µM) MCF7. (In general: Tetrazolium assays rely on reduction of a dye to a coloured formazan, in cell work by metabolically active cells.)
Excerpt: (§1) The cell lines mentioned above were used to determine the inhibitory effects of the compounds on cell growth using the MTT assay.
For another data set, the target named is CDK8 (Homo sapiens, UniProt P49336). The data set can be described thus: In vitro CDK8 enzyme inhibition assay.
Data set [2] has as its target T1, CDK9/CycT1 (Homo sapiens, UniProt P50750). The data set can be described thus: In vitro CDK9/cyclin T1 enzyme inhibition assay.
Description: (§2) The CDK enzyme assay was performed as previously described [63].
Data set [3] deals with HCT116 (colorectal carcinoma). The data set can be described thus: MTT antiproliferative assay, HCT116. To be noted: Homo sapiens, HCT-116, read-out: IC50 (µM) HCT116.
Excerpt: as §1
The next data set concerns the target CDK7/CycT1 (Homo sapiens, UniProt P50613). The experiment in a line: In vitro CDK7 enzyme inhibition assay.
Data set [4] has as its system HepG2 (hepatocellular carcinoma). The data set can be described thus: MTT antiproliferative assay, HepG2. To be noted: Homo sapiens, HepG2, read-out: IC50 (µM) HepG2.
Excerpt: as §1
The test system of data set [5] is normal fibroblast cell line, WI-38. The data set can be described thus: MTT cytotoxicity in normal fibroblasts WI-38. Particulars: Homo sapiens, WI-38, read-out: IC50 (µM) WI-38.
Description: The MTT assay was performed to evaluate the in vitro antitumor activity of the synthesized 4-anilinoquinazolines according to a previously reported method [59, 60, 61, 62, 63].
In data set [6] the target is T1, CDK9/CycT1. The data set can be described thus: Ligand efficiency and ligand lipophilic efficiency (DataWarrior). To be noted: for LE: LE=−RTlnIC50/N; for LLE: LLE=pIC50−clogP. As for the experimental part: Ligand efficiency is an important parameter that is widely used in the development of drug measures to quantify the molecular properties, particularly the size and lipophilicity of small molecules, required to gain binding affinity to a drug target. The LE values of the synthesized compounds were measured using DataWarrior employing the following equation [48]: LE=−RTlnIC50/N where R is the universal gas constant, T is the absolute temperature in Kelvin, and N represents the number of heavy atoms, that is, non-hydrogen atoms in the drug.
LE is widely used for the selection and optimization of fragments, hits, and leads. […] Compounds with LE values higher than 0.3 are promising lead compounds.
In drug discovery and development, it is challenging to optimize the compound activity while maintaining a constant lipophilicity. As a result, LLE is an effective approach to control molecule lipophilicity to evade any “molecular obesity” through lead optimization. These were obtained via DataWarrior, according to the following equation [50]: LLE=pIC50−clogP
An acceptable lead compound should have an LLE value ≥5. As depicted in Table 6, 5j has acceptable LLE values. However, other compounds have values below the recommended limit.

The test system of data set [7] is HCT116, HepG2, HeLa, MCF7 cancer cell lines. The experiment in a line: MTT assay, ranges over the cancer cell line panel. To be noted: Homo sapiens, read-out: IC50 range over the tested cancer cell lines.
Excerpt: as §1
The test system of data set [8] is HeLa (cervical epithelioid carcinoma). The data set can be described thus: MTT antiproliferative assay, HeLa. Particulars: Homo sapiens, read-out: IC50 (µM) HeLa.
Excerpt: as §1
Where [9] appears, read: pIC 50, from the CDK9 IC50 of Table 6.

The structures appear in SMILES notation.

By IC50 is commonly meant the concentration that gives 50% inhibition. For orientation: melting point means the temperature of the solid-liquid transition.

Chain of CDK8 (P49336 whole entry): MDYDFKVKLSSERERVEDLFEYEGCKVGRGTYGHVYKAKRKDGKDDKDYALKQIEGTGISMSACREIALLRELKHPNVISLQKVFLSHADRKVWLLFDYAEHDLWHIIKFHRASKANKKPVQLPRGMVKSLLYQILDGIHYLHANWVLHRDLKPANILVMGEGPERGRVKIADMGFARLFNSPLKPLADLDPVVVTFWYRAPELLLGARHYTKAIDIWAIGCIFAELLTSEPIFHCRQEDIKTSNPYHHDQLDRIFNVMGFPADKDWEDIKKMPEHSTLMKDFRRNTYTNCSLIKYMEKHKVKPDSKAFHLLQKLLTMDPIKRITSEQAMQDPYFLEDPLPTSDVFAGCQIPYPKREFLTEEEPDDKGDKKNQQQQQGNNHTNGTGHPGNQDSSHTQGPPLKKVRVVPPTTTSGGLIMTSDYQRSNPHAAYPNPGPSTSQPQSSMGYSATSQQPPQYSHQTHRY
Chain of CDK8 (P24863 whole entry partner): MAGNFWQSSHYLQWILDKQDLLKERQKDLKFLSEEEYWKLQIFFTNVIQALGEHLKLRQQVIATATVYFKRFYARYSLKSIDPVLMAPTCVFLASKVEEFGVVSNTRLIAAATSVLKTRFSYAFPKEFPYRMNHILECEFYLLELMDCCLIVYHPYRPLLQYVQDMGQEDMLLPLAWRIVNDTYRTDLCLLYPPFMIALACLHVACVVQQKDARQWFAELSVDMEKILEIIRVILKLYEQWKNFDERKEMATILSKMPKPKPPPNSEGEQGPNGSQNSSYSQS
T1 sequence (P50750 whole entry): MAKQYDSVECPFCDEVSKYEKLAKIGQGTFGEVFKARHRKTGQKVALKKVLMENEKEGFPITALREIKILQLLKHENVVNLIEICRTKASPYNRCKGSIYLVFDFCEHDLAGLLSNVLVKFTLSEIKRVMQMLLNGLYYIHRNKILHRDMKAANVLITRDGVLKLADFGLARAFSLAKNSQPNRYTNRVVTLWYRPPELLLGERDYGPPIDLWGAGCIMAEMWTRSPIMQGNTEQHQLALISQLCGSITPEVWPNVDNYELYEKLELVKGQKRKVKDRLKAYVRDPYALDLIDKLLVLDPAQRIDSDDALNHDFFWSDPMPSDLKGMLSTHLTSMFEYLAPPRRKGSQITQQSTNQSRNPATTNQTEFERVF
T1 sequence (O60563 whole entry partner): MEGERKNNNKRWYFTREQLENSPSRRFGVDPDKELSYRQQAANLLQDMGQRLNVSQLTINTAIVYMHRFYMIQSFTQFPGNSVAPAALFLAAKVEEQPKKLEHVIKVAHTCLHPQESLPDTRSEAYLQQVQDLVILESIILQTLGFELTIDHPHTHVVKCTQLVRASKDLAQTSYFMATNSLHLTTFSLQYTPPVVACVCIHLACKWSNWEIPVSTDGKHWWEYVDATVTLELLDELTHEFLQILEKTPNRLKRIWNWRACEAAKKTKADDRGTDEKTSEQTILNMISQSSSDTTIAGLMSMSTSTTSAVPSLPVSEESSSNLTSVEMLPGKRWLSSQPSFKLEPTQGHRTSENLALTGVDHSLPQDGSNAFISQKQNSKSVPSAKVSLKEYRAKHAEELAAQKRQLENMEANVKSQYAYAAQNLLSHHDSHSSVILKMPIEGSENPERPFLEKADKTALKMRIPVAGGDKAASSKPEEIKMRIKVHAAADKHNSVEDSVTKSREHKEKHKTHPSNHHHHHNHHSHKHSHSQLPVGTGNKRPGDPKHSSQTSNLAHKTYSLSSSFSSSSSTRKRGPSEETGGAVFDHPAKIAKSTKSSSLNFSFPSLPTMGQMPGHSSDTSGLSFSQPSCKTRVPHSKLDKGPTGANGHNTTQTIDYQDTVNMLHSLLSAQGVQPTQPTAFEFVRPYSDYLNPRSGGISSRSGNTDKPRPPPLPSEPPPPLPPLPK
Chain of CDK7/CycT1 (P50613 whole entry): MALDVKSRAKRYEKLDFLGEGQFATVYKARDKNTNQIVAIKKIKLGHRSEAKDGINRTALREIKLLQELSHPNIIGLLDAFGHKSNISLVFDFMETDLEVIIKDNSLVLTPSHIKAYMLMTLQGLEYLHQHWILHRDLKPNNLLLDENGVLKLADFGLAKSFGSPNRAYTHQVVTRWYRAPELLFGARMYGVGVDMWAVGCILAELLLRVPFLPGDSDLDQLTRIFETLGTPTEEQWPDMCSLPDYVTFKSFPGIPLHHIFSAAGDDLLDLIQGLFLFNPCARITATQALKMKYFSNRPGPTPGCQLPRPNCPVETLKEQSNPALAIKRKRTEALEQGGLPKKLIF
Chain of CDK7/CycT1 (P51946 whole entry partner): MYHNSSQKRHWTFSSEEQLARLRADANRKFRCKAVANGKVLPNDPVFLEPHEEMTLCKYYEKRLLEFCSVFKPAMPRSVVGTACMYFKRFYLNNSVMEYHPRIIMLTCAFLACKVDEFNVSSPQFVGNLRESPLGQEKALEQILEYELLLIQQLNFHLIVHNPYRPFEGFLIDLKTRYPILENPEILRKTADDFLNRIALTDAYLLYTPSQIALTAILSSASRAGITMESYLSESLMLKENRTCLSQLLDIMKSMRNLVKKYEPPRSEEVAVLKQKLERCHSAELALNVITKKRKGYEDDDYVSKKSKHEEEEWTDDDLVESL
Description for CDK7/CycT1: as §2
Description for CDK8: as §2

With `NS(=O)(=O)c1cccc(Nc2nccc(-c3ccccc3)n2)c1` [Compound 5a, 3-((4-Phenylpyrimidin-2-yl)amino)benzenesulfonamide], the IC50 in [1] is 3.84 ± 0.2 µM; against CDK8 it was 2.3 µM; against CDK9/CycT1 [2] (IC50 (µM) CDK9/CycT1, dose-response curves, repeated in Table 6), 0.449 µM; in [3] it was 25.9 ± 1.8 µM; on CDK7/CycT1, 0.875 µM; in data set [4], 7.84 ± 0.6 µM. Further, the concentration for half-maximal inhibition (IC50) in data set [5] is 37.9 ± 2.5 µM; in [7], 1 to 10 µM; in data set [8], 11.5 ± 0.9 µM. The same molecule had an LE on CDK9/CycT1 [6] of 0.3869. This molecule came in with an LLE at CDK9/CycT1 [6] of 3.9758.

Regarding `NS(=O)(=O)c1cccc(Nc2nccc(-c3ccc(C(F)(F)F)cc3)n2)c1` [Compound 5d, 3-((4-(4-(Trifluoromethyl)phenyl)pyrimidin-2-yl)amino)benzenesulfonamide], the melting point was 150 to 152 °C. Further, the 50% inhibitory concentration (IC50) in data set [1] turned out to be 8.72 ± 0.7 µM. Moreover, 0.716 µM corresponded to half-maximal inhibition against CDK8 (IC50). In addition, the IC50 against CDK9/CycT1 [2] (setting [9]) is 0.0729 µM. In addition, the half-inhibitory concentration (IC50) in [3] was found to be 33.8 ± 2.2 µM. Further, at CDK7/CycT1, the IC50 is 0.661 µM. In addition, in [4], the IC50 came out at 11.7 ± 1 µM. For the same molecule, in [5], the half-inhibitory concentration (IC50) came out at 51.9 ± 3.1 µM. On CDK9/CycT1 [6], this molecule gave an LE of 0.3254 and an LLE of 3.0453. Also, in data set [7], the IC50 was in the range of 1 to 10 µM. In data set [8], the half-maximal inhibitory concentration (IC50) was 22.2 ± 1.7 µM.

For the molecule `NS(=O)(=O)c1cccc(Nc2nccc(-c3cnccn3)n2)c1` [Compound 5j, 3-((4-(Pyrazin-2-yl)pyrimidin-2-yl)amino)benzenesulfonamide], the melting point is 288 to 290 °C. In addition, the half-maximal inhibitory concentration (IC50) in data set [1] turned out to be 71.3 ± 4 µM. The molecule also came in with a half-inhibitory concentration (IC50) against CDK8 of 4.05 µM. The molecule also gave an IC50 on CDK9/CycT1 [2] (setting [9]) of 0.111 µM. In addition, in [3], the IC50 is above 100 µM. At CDK7/CycT1, 1.46 µM corresponded to half-maximal inhibition (IC50). Besides, the IC50 in [4] came out at 85.3 ± 4.3 µM. Also, the IC50 in data set [5] was determined as 60.5 ± 3.7 µM. Besides, on CDK9/CycT1 [6], the LE amounted to 0.3867 and the LLE is given as 5.5526. For the same molecule, the IC50 in [8] came out at 92.4 ± 4.8 µM.

Source of the values: article PMC10254914, “Targeting Transcriptional CDKs 7, 8, and 9 with Anilinopyrimidine Derivatives as Anticancer Agents: Design, Synthesis, Biological Evaluation and In Silico Studies” (Molecules, 2023).
